Test results taken from US7166270B1, “Methods of screening compounds useful for prevention of infection or pathogenicity” (The Netherlands Cancer Institute, priority 1995, dated 2007).

Test system: Caenorhabditis elegans
Experiment: C. elegans fast killing assay on PGS/PG agar
Assay type: in vivo
Protocol: The rate of killing observed under these conditions is defined as “slow killing.” Briefly, under the slow killing conditions, 5 μl of an overnight liquid culture of PA14 is spread on the center of an NGM (or M9) agar plate and grown for 37° C. for 24 hours. The plates are then allowed to cool to room temperature for several hours. Worms at the fourth larval stage (L4) are added to the agar but not in contact with the bacterial lawn. The worms typically move toward the bacterial lawn and commence feeding. In contrast, when PA14 worms were grown on peptone-glucose-sorbitol (PGS), a richer medium of higher osmolarity, a different result was obtained. When L4 worms were placed on PGS plates, the worms became sluggish, then paralyzed, and then died within 4–24 hours (FIG. 5). Some worms died even before coming into direct contact with the bacterial lawn. This more rapid killing on PGS agar is termed “fast killing.”
Nematode Killing Assay. Worm killing by P. aeruginosa was performed in a plate assay. For the fast killing assay, 5 μl of an overnight King's B (King et al. (1954) J. Lab. Clin. Med. 44:301–307) culture of PA14, or the test strains, were spread on 3.5 cm diameter plates containing PGS or PG agar. A bacterial lawn of about 2 cm diameter grew in the center of plate after incubation at 37° C. for 24 hours. After cooling to room temperature (ranges from 4–12 hours after removal from 37° C. incubator), 40 worms were added to the agar. Unless otherwise stated all worm strains were cultured at 20° C., and the fourth larval (L4) stage was used. The experiments were performed in 3–4 replicates per strain. Bristol N2 was used as the wild-type strain and E. coli OP50 for the negative control. Plates seeded with worms were incubated in 25° C. Worm mortality was scored at various time points. A worm was considered dead when no movement was detectable when touched lightly with an eye-lash pick. Slow killing assays were performed generally as described above.

EDDA
effect on PA14 fast killing of C. elegans (in words) (400 μM added to PGS): did not significantly affect fast killing

OC[C@@H](O)[C@@H](O)[C@H](O)[C@@H](O)CO [sorbitol]
effect on PA14 fast killing of C. elegans (in words) (0.15 M added to Peptone-Glucose medium, compared to 0.1 M or no sorbitol): significantly increased the rate of killing

[Cl][Fe]([Cl])[Cl] [FeCl3]
effect on PA14 fast killing of C. elegans (in words) (100 μM added to PGS): significantly reduced killing
